From article PMC10053059, “Intraocular siRNA Delivery Mediated by Penetratin Derivative to Silence Orthotopic Retinoblastoma Gene” (Pharmaceutics, 2023)
Where no end group is shown, it is not given here.

Tests used:
eyes, retina = details: in vivo; cited from earlier work
Source text: We previously screened out penetratin from several of the most commonly reported cell-penetrating peptides based on the ex vivo permeability in excised cornea and in vivo ocular distribution. In a subsequent study, we optimized wild-type penetratin via amino acid mutation to further improve its permeability, and obtained a series of derivative peptides, which could be used as potential ocular absorption enhancers with low toxicity. […] Therefore, we chose 89WP to ...

ARPE-19 cells [1] = experiment: Intracellular co-localization, laser scanning confocal microscopy; assay type: cell-based, Human; details: ARPE-19, 1 µg/mL siRNA, serum-free medium, 4 h
Method: ARPE-19 cells in the logarithmic growth phase were seeded in confocal dishes with a density of 5000 cells/well and incubated for 24 h with 5% CO2 at 37 °C. After administration with various polyplexes at a final concentration of 1 µg/mL siRNA, the cells were further cultured in serum-free medium for 4 h. Then, the cells were washed with 0.2% (m/v) heparin sodium solution three times, fixed with 4% (m/v) paraformaldehyde solution for 5 min, stained with 1 µg/mL 4’,6-diamidino-2-phenylindole (DAPI) solution for 10 min, and moisturized with 50% (v/v) glycerol.

WERI-Rb-1 cells = experiment: Cellular uptake pathway, dual-label flow cytometry with uptake inhibitors; assay type: cell-based, Human; details: WERI-Rb-1, inhibitors of Table S1, n = 3 (Figure S4)
Method: (§1) For quantitative analysis of cellular uptake of different formulations, ARPE-19 cells and WERI-Rb-1 cells in the logarithmic growth phase were inoculated in 12-well plates with 50,000 cells in each well (n = 3), as mentioned above. After being incubated with various formulations at a final concentration of 1 µg/mL siRNA, the cells were trypsinized with 0.25% trypsin-EDTA, collected in Eppendorf tubes, and centrifuged at 1000 rpm for 5 min. The precipitated cells were subsequently suspended, washed twice in 200 μL phosphate buffer saline (PBS), and analyzed using a flow cytometer (Beckman, Brea, CA, USA). The percentage of FAM-positive cells in total viable cells was defined as the uptake efficiency. The effects of various inhibitors on cellular uptake were also assessed.
(§2) Table S1. Cellular uptake inhibitors and their function mechanisms
(§3) Inhibitor Final Mechanism of action
(§4) Filipin 20 μg/mL Bind to cholesterol on the cell membrane and inhibit endocytosis
(§5) Mß-CD 300 μg/mL Deplete cholesterol and suppress endocytosis
(§6) Genistein 20 μg/mL Inhibit lipid raft/caveolae mediated endocytosis
(§7) Colchicine 20 μg/mL Inhibit pinocytosis by binding to tubulin to prevent microtubule
(§8) Dynasore 20 μg/mL Inhibit […] in clathrin -mediated endocytosis
(§9) Figure S1. Polyacrylamide gel electrophoresis of primary polyplexes siRNA/PA. The ratio is N/P
(§10) of 3rd generation PAMAM to siRNA. […]

ARPE-19 cells [2] = experiment: as above; assay type: cell-based, Human; details: ARPE-19, inhibitors of Table S1, n = 3 (Figure S4)
Method: as §1, §2, §3, §4, §5, §6, §7, §8, §9, §10

Row | Sequence | distribution in the eyes after topical instillation (eyes, retina) | internalization by cells (confocal observation) (ARPE-19 cells [1]) | effect of uptake inhibitors on cellular uptake of single fluorescence-labeled material (WERI-Rb-1 cells) | effect of uptake inhibitors on cellular uptake of single fluorescence-labeled material (ARPE-19 cells [2])
1 | RQIKIWFWWRRMKWKK [89WP] | showed more distribution in the eyes, especially in the retina |  |  | 
2 | RQIKIWFWWRRMKWKK [89WP-FAM, 5-carboxyfluorescein-labeled 89WP] |  | could be well internalized by the cells and distributed around the nuclei | did not affect cellular uptake | did not affect cellular uptake
